≈ marks a conversion by molar mass, not a printed value.

Tested on in one series: not listed separately
Briefly: MTT assay. The following applies: human, HEK-293 cells (normal reference cell line), HEK-293 (normal cells), 24h, read-out: IC50, cytotoxicity. In kind it is cell-based. Here is the method: (§1) Therefore, the whole set of compounds were tested by using MTT assay in order to check their overall cytotoxic effect. The growth of cells was monitored after 24 and 48 h of incubation with the increased concentrations (1–100 µg/ml) of the thiosemicarbazide derivatives. […] This confirms that the compounds tested combine different mechanisms of anticancer activity, and DNA topoisomerase II inhibition is only one of them.
(§2) Cytotoxicity of the synthesised compounds were examined against a panel of the cancer cell lines, MCF-7 (estrogen-dependent human breast cancer cells), MDA-MB-231 (oestrogen-independent human breast cancer cells), SCC- 25 (squamous cell carcinoma of the tongue), FaDu (squamous cell carcinoma of the pharynx), A- 549 (human lung carcinoma), AGS (human gastric adenocarcinoma), LS-180, HT-29 (colon cancer cell lines), T98G (glioblastoma cells), A375 (melanoma cells). Human embryonic kidney (HEK-293) cells and human normal skin fibroblasts (CRL-2072) were used as reference cell lines. The investigated cell lines were obtained from American Type Culture Collection (ATCC; Manassas, VA, USA). A375, MCF-7, MDA-MB-231, T98G cells were cultured in Dulbecco’s Modified Eagle’s Medium (DMEM) (Sigma Aldrich, St. Louis, MO, USA) supplemented with 10% heat inactivated foetal bovine serum (FBS), penicillin (100 U/mL), and streptomycin (100 μg/mL). SCC-25 cells were cultured in 1:1 mixture of Dulbecco’s modified Eagle’s medium and Ham’s F12 Medium (Sigma Aldrich, St. Louis, MO, USA) supplemented with 400 ng/ml hydrocortisone, 10% FBS, penicillin (100 U/mL), and streptomycin (100 μg/mL). A549 and AGS cells were maintained in F-12K Medium (Sigma Aldrich, St. Louis, MO, USA). LS-180 and FaDu cells were cultured in Eagle’s Minimum Essential Medium. HT-29 cells were maintained in McCoy’s 5 A Medium (Sigma Aldrich, St. Louis, MO, USA) supplemented with 10%FBS, penicillin (100 U/mL), and streptomycin (100 μg/mL). All the cells were maintained at 37 °C in a humidified atmosphere of 5% CO2.
(§3) The synthesised compounds were dissolved in DMSO in order to obtain stock solutions. At the day of the experiment, the suspension of cells (1 × 10^5 cells/mL) in the respective medium was applied to a 96-well plate at 100 μL per well. […] The control cells were cultured only with a medium containing 2% FBS. Cytotoxicity of DMSO was also checked at concentrations present in respective dilutions of stock solution. After 24 h (or 48 h) of incubation, 15 μL of MTT working solution (5 mg/mL in PBS) was added to each well. The plate was incubated for 3 h. Subsequently, 100 μL of 10% SDS solution was added to each well. Cells were incubated overnight at 37 °C to dissolve the precipitated formazan crystals. The concentration of the dissolved formazan was evaluated by measuring the absorbance at λ = 570 nm, using a microplate reader (Epoch, BioTek Instruments, Inc., Winooski, VT, USA). At least two independent experiments were performed in triplicates. The results of the MTT assay were expressed as mean ± SD. […] IC50 values of the investigated derivatives and standards were calculated using the IC50 calculator.[23]
Background: Tetrazolium assays rely on reduction of a dye to a coloured formazan, in cell work by metabolically active cells.
For orientation: IC50 means the point on the concentration scale where inhibition reaches its midpoint. Turning to `O=C(NC(=S)NNC(=O)c1ccccc1[N+](=O)[O-])c1ccc([N+](=O)[O-])cc1` [Compound 6, 1-(2-Nitrobenzoyl)-4-(4-nitrobenzoyl)thiosemicarbazide], the IC50 at 24 h is more than 100 µg/mL.

The series is the same for the next values; noted with them: human, HEK-293 cells (normal reference cell line), HEK-293 (normal cells), 48h, read-out: IC50, cytotoxicity.
Consider `O=C(NC(=S)NNC(=O)c1ccccc1[N+](=O)[O-])c1ccc([N+](=O)[O-])cc1` [Compound 6, 1-(2-Nitrobenzoyl)-4-(4-nitrobenzoyl)thiosemicarbazide], for which the IC50 at 48 h is 60.1 µg/mL (≈ 154 µM).

The test system of a further series is A375 (melanoma cells). The series is described as follows: MTT assay. In kind it is cell-based. The following applies: Homo sapiens, A-375, 24h, read-out: IC50, cytotoxicity. As to the method: as §1, §2, §3
In the case of `O=C(NC(=S)NNC(=O)c1ccccc1[N+](=O)[O-])c1ccc([N+](=O)[O-])cc1` [Compound 6, 1-(2-Nitrobenzoyl)-4-(4-nitrobenzoyl)thiosemicarbazide], the IC50 was more than 100 µg/mL.

The series is the same for the next values; noted with them: Homo sapiens, A-375, 48 h, read-out: IC50, cytotoxicity.
As for `O=C(NC(=S)NNC(=O)c1ccccc1[N+](=O)[O-])c1ccc([N+](=O)[O-])cc1` [Compound 6, 1-(2-Nitrobenzoyl)-4-(4-nitrobenzoyl)thiosemicarbazide], the IC50 amounted to 7.98 µg/mL (≈ 20.5 µM).

Another series has as its system A549 (human lung carcinoma). The series is described as follows: MTT assay. In kind it is cell-based. The conditions noted are these: 24h, read-out: IC50, cytotoxicity. Here is the method: as §1, §2, §3
Take `O=C(NC(=S)NNC(=O)c1ccccc1[N+](=O)[O-])c1ccc([N+](=O)[O-])cc1` [Compound 6, 1-(2-Nitrobenzoyl)-4-(4-nitrobenzoyl)thiosemicarbazide]: the IC50 was 20.8 µg/mL (≈ 53.3 µM).

Still in this series, the particulars now being: 48h, read-out: IC50, cytotoxicity.
`O=C(NC(=S)NNC(=O)c1ccccc1[N+](=O)[O-])c1ccc([N+](=O)[O-])cc1` [Compound 6, 1-(2-Nitrobenzoyl)-4-(4-nitrobenzoyl)thiosemicarbazide]: the IC50 amounted to 23.4 µg/mL (≈ 60.2 µM).

The next series relates to AGS (human gastric adenocarcinoma). The series is described as follows: MTT assay. The series is classed as cell-based. The following applies: 24h, read-out: IC50, cytotoxicity. Here is the method: as §1, §2, §3
As for `O=C(NC(=S)NNC(=O)c1ccccc1[N+](=O)[O-])c1ccc([N+](=O)[O-])cc1` [Compound 6, 1-(2-Nitrobenzoyl)-4-(4-nitrobenzoyl)thiosemicarbazide], the IC50 worked out at 23.5 µg/mL (≈ 60.3 µM).

The series is the same for the next values; noted with them: 48 h, read-out: IC50, cytotoxicity.
Consider `O=C(NC(=S)NNC(=O)c1ccccc1[N+](=O)[O-])c1ccc([N+](=O)[O-])cc1` [Compound 6, 1-(2-Nitrobenzoyl)-4-(4-nitrobenzoyl)thiosemicarbazide], for which the IC50 came out at 29.8 µg/mL (≈ 76.5 µM).

Another series has as its system FaDu (squamous cell carcinoma of the pharynx). Briefly: MTT assay. The series is classed as cell-based. The conditions noted are these: Homo sapiens, 24h, read-out: IC50, cytotoxicity. Here is the method: as §1, §2, §3
For the molecule `O=C(NC(=S)NNC(=O)c1ccccc1[N+](=O)[O-])c1ccc([N+](=O)[O-])cc1` [Compound 6, 1-(2-Nitrobenzoyl)-4-(4-nitrobenzoyl)thiosemicarbazide], the IC50 was 12.9 µg/mL (≈ 33.1 µM).

The series is the same for the next values; noted with them: Homo sapiens, 48 h, read-out: IC50, cytotoxicity.
For `O=C(NC(=S)NNC(=O)c1ccccc1[N+](=O)[O-])c1ccc([N+](=O)[O-])cc1` [Compound 6, 1-(2-Nitrobenzoyl)-4-(4-nitrobenzoyl)thiosemicarbazide], the IC50 was found to be 14.8 µg/mL (≈ 37.9 µM).

The next series concerns HT-29 (colon cancer cell line). The series is described as follows: MTT assay. The series is classed as cell-based. The following applies: Homo sapiens; HT-29, MTT, 24h; read-out: IC50, cytotoxicity. Here is the method:
as §1, §2, §3
For the molecule `O=C(NC(=S)NNC(=O)c1ccccc1[N+](=O)[O-])c1ccc([N+](=O)[O-])cc1` [Compound 6, 1-(2-Nitrobenzoyl)-4-(4-nitrobenzoyl)thiosemicarbazide], the IC50 came out at 22.8 µg/mL (≈ 58.5 µM).

The series is the same for the next values; noted with them: Homo sapiens; HT-29, MTT, 48 h; read-out: IC50, cytotoxicity.
Turning to `O=C(NC(=S)NNC(=O)c1ccccc1[N+](=O)[O-])c1ccc([N+](=O)[O-])cc1` [Compound 6, 1-(2-Nitrobenzoyl)-4-(4-nitrobenzoyl)thiosemicarbazide], the IC50 was found to be 6.78 µg/mL (≈ 17.4 µM).

Another series deals with LS180 (colon cancer cell line). The series is described as follows: MTT assay. The following applies: Homo sapiens, 24h, read-out: IC50, cytotoxicity. In kind it is cell-based. Here is the method: as §1, §2, §3
Regarding `O=C(NC(=S)NNC(=O)c1ccccc1[N+](=O)[O-])c1ccc([N+](=O)[O-])cc1` [Compound 6, 1-(2-Nitrobenzoyl)-4-(4-nitrobenzoyl)thiosemicarbazide], the IC50 is more than 100 µg/mL.

Staying with this series, now noted: Homo sapiens, 48 h, read-out: IC50, cytotoxicity.
As for `O=C(NC(=S)NNC(=O)c1ccccc1[N+](=O)[O-])c1ccc([N+](=O)[O-])cc1` [Compound 6, 1-(2-Nitrobenzoyl)-4-(4-nitrobenzoyl)thiosemicarbazide], the IC50 was 10.4 µg/mL (≈ 26.7 µM).

In a further series the test system is MCF-7 (estrogen-dependent human breast cancer cells). Briefly: MTT assay. The following applies: MCF7, MCF-7, MTT, 24h, read-out: IC50, cytotoxicity. In kind it is cell-based. Here is the method: as §1, §2, §3
`O=C(NC(=S)NNC(=O)c1ccccc1[N+](=O)[O-])c1ccc([N+](=O)[O-])cc1` [Compound 6, 1-(2-Nitrobenzoyl)-4-(4-nitrobenzoyl)thiosemicarbazide]: the IC50 is more than 100 µg/mL.

The series is the same for the next values; noted with them: MCF7, MCF-7, MTT, 48h, read-out: IC50, cytotoxicity.
As to `O=C(NC(=S)NNC(=O)c1ccccc1[N+](=O)[O-])c1ccc([N+](=O)[O-])cc1` [Compound 6, 1-(2-Nitrobenzoyl)-4-(4-nitrobenzoyl)thiosemicarbazide], the 50% inhibitory concentration (IC50) is 15.9 µg/mL (≈ 40.9 µM).

The next series concerns MDA-MB-231 (estrogen-independent human breast cancer cells). Briefly: MTT assay. The series is classed as cell-based. The following applies: MDA-MB-231, MTT, 24h, read-out: IC50, cytotoxicity. Here is the method:
as §1, §2, §3
For the molecule `O=C(NC(=S)NNC(=O)c1ccccc1[N+](=O)[O-])c1ccc([N+](=O)[O-])cc1` [Compound 6, 1-(2-Nitrobenzoyl)-4-(4-nitrobenzoyl)thiosemicarbazide], the IC50 was more than 100 µg/mL.

The same series, now with this note: MDA-MB-231, MTT, 48h, read-out: IC50, cytotoxicity.
Take `O=C(NC(=S)NNC(=O)c1ccccc1[N+](=O)[O-])c1ccc([N+](=O)[O-])cc1` [Compound 6, 1-(2-Nitrobenzoyl)-4-(4-nitrobenzoyl)thiosemicarbazide]: the 50% inhibitory concentration (IC50) came out at 16.8 µg/mL (≈ 43.3 µM).

The next series deals with SCC-25 (squamous cell carcinoma of the tongue). Briefly: MTT assay. The following applies: Homo sapiens; SCC-25, MTT, 24h; read-out: IC50, cytotoxicity. The series is classed as cell-based. As to the method:
as §1, §2, §3
For the molecule `O=C(NC(=S)NNC(=O)c1ccccc1[N+](=O)[O-])c1ccc([N+](=O)[O-])cc1` [Compound 6, 1-(2-Nitrobenzoyl)-4-(4-nitrobenzoyl)thiosemicarbazide], the IC50 worked out at 26 µg/mL (≈ 66.7 µM).

Staying with this series, now noted: Homo sapiens; SCC-25, MTT, 48 h; read-out: IC50, cytotoxicity.
As for `O=C(NC(=S)NNC(=O)c1ccccc1[N+](=O)[O-])c1ccc([N+](=O)[O-])cc1` [Compound 6, 1-(2-Nitrobenzoyl)-4-(4-nitrobenzoyl)thiosemicarbazide], the IC50 came out at 9.78 µg/mL (≈ 25.1 µM).

Another series has as its system T98G (glioblastoma cells). The series is described as follows: MTT assay. The series is classed as cell-based. The conditions noted are these: Homo sapiens, 24h, read-out: IC50, cytotoxicity. Here is the method: as §1, §2, §3
With `O=C(NC(=S)NNC(=O)c1ccccc1[N+](=O)[O-])c1ccc([N+](=O)[O-])cc1` [Compound 6, 1-(2-Nitrobenzoyl)-4-(4-nitrobenzoyl)thiosemicarbazide], the IC50 worked out at 8.41 µg/mL (≈ 21.6 µM).

Staying with this series, now noted: Homo sapiens, 48h, read-out: IC50, cytotoxicity.
Regarding `O=C(NC(=S)NNC(=O)c1ccccc1[N+](=O)[O-])c1ccc([N+](=O)[O-])cc1` [Compound 6, 1-(2-Nitrobenzoyl)-4-(4-nitrobenzoyl)thiosemicarbazide], the half-inhibitory concentration (IC50) worked out at 9.78 µg/mL (≈ 25.1 µM).
